Columns and labels:
[1] = target: Voltage-dependent N-type calcium channel subunit alpha-1B (Rattus norvegicus, UniProt Q02294); type: functional
[2] = target: Histamine H2 receptor (Homo sapiens, UniProt P25021)
[3] = target: T1, Corticotropin-releasing factor receptor 1 (Homo sapiens, UniProt P34998)
T1 sequence (P34998 whole entry): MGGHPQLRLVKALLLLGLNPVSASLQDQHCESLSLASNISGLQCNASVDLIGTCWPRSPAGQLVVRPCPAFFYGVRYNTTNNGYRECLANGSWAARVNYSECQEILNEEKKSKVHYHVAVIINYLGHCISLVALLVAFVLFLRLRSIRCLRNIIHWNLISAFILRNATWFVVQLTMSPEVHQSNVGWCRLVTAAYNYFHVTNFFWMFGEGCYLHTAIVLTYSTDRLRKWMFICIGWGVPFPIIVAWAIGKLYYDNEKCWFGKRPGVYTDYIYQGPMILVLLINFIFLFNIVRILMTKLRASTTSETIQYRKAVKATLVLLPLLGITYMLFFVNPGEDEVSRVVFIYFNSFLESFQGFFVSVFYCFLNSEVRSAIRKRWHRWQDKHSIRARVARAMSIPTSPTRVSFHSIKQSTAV

[4] = target: Neurotensin receptor type 1 (Homo sapiens, UniProt P30989)
[5] = target: T2, Endothelin receptor type B (Homo sapiens, UniProt P24530)
T2 sequence (P24530 whole entry): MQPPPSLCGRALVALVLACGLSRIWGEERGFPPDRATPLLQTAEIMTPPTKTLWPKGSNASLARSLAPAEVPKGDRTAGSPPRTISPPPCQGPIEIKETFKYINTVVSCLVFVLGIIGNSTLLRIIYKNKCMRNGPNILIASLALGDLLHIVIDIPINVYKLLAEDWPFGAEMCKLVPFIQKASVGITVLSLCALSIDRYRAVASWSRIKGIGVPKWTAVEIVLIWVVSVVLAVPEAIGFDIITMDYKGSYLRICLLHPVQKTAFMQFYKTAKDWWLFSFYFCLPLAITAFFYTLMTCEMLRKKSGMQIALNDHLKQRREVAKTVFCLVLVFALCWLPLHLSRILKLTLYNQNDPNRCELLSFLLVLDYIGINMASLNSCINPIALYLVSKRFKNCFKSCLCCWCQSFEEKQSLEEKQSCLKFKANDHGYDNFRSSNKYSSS

[6] = target: Beta-3 adrenergic receptor (Homo sapiens, UniProt P13945)
[7] = target: T3, Alpha-2A adrenergic receptor (Homo sapiens, UniProt P08913)
T3 sequence (P08913 whole entry): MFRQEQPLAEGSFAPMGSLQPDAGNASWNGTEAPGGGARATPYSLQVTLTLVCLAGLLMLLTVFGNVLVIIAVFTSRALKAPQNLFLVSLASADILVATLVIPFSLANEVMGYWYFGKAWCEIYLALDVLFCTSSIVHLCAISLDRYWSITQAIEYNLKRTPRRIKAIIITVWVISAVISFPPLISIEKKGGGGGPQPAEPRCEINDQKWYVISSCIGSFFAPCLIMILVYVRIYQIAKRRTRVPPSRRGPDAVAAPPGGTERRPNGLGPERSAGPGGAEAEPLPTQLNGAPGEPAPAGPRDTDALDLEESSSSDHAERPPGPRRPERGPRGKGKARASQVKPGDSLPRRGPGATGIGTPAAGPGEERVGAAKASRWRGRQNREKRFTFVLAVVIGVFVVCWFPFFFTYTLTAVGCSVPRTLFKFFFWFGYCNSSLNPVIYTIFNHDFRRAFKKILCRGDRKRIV

[8] = target: T4, Gastric inhibitory polypeptide receptor (Homo sapiens, UniProt P48546)
T4 sequence (P48546 whole entry): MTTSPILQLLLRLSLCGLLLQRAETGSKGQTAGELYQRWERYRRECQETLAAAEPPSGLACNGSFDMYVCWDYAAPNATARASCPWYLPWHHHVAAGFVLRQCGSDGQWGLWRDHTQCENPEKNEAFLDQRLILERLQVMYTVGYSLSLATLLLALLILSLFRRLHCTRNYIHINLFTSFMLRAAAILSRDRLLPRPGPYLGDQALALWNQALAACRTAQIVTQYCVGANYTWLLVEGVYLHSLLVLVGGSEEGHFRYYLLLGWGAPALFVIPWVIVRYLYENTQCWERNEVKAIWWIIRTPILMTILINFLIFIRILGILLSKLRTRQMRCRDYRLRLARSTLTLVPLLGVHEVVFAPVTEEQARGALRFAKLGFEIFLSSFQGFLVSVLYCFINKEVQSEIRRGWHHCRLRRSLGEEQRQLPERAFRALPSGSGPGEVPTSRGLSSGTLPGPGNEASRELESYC

[9] = target: T5, Androgen receptor (Rattus norvegicus, UniProt P15207)
T5 sequence (P15207 whole entry): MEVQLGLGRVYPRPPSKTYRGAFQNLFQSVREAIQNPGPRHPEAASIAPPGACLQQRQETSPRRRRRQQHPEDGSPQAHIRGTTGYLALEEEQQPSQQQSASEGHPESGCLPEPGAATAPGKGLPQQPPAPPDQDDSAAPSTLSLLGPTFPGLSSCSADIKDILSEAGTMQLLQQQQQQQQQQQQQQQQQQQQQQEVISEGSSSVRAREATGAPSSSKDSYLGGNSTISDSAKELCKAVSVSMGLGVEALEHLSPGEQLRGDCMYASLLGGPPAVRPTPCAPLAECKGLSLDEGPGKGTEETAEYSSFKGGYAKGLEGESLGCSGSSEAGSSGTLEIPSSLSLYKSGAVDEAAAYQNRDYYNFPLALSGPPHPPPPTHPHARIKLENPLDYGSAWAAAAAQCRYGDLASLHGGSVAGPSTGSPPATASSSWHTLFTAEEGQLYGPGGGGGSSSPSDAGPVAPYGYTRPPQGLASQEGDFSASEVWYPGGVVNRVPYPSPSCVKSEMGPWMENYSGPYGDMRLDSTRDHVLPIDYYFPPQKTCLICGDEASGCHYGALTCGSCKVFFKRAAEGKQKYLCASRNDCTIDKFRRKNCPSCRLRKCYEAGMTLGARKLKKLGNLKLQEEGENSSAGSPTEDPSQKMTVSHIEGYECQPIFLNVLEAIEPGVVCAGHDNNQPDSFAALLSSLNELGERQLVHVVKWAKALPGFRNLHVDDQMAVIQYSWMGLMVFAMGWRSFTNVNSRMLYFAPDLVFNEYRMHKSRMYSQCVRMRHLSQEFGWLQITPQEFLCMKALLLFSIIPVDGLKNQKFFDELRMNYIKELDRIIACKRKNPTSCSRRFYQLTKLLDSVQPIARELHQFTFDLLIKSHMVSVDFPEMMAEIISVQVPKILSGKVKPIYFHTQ
Further: assay procedure not described here.

Chain of Voltage-dependent N-type calcium channel subunit alpha-1B (Q02294 whole entry): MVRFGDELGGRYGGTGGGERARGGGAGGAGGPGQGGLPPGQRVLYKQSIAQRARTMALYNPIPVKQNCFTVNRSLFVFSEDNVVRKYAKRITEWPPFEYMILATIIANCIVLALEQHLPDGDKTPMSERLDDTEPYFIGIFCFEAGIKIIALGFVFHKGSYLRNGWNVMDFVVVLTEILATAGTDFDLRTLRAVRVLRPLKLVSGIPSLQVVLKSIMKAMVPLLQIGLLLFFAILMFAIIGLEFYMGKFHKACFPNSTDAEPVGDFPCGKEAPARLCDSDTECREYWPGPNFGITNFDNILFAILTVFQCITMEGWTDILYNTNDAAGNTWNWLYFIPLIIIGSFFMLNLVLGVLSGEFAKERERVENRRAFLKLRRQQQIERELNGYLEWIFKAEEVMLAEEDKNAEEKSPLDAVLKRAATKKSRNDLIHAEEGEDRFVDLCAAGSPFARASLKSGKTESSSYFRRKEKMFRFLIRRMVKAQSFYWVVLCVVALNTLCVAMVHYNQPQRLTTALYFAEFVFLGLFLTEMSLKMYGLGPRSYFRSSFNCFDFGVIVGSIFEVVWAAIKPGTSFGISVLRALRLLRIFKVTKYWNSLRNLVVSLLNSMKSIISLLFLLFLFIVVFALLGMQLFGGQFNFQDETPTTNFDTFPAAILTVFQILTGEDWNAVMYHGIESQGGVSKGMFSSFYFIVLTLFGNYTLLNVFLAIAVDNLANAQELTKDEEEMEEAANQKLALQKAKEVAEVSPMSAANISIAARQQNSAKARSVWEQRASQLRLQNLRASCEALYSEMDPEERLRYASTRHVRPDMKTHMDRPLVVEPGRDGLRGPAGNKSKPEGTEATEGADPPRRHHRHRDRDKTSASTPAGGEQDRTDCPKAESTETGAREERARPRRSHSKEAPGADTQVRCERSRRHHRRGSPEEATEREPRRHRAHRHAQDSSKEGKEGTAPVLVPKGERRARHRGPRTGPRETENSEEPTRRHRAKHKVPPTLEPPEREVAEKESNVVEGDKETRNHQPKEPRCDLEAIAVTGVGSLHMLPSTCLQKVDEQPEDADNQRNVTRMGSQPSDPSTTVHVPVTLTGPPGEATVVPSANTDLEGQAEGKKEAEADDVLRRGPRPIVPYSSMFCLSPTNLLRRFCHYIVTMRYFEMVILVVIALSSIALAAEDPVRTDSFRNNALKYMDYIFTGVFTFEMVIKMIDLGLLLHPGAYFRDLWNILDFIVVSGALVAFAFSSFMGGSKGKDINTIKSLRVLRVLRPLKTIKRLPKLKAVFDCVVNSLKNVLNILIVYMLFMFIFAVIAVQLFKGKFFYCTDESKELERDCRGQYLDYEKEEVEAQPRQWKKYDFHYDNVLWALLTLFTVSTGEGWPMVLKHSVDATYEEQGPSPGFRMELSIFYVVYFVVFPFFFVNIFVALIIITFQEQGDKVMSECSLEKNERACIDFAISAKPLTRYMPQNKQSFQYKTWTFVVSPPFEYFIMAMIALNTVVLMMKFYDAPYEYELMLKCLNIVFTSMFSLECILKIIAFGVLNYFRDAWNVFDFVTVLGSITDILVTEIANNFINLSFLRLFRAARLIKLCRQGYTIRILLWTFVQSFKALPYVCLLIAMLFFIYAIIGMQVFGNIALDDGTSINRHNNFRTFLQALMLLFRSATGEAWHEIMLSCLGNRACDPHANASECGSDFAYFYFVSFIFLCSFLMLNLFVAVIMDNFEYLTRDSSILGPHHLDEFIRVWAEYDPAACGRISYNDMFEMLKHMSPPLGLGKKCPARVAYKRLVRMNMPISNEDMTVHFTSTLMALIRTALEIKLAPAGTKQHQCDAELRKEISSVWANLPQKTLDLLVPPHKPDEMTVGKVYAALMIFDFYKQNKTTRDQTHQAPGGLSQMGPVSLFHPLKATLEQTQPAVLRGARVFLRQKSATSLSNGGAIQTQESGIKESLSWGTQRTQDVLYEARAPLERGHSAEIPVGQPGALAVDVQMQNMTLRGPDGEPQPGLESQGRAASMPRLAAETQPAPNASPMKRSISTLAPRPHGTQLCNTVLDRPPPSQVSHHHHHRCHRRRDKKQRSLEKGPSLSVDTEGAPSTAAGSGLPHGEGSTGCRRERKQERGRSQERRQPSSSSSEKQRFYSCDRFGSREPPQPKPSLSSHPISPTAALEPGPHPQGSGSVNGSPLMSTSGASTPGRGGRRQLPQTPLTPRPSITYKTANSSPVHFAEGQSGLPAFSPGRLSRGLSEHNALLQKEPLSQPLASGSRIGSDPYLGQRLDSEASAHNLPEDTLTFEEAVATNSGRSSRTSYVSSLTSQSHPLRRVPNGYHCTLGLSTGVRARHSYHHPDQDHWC
Chain of Beta-3 adrenergic receptor (P13945 whole entry): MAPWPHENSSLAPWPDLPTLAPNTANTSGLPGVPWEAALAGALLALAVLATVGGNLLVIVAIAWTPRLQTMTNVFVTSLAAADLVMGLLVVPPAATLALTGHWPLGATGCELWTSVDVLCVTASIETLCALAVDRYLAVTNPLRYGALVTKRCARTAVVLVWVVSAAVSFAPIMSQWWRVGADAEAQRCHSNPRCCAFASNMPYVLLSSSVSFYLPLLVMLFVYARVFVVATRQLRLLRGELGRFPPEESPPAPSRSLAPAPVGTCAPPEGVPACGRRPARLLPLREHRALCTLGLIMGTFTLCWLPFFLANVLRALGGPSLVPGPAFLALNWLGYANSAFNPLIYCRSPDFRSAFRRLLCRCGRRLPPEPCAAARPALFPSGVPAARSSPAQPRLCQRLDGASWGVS
Chain of Neurotensin receptor type 1 (P30989 whole entry): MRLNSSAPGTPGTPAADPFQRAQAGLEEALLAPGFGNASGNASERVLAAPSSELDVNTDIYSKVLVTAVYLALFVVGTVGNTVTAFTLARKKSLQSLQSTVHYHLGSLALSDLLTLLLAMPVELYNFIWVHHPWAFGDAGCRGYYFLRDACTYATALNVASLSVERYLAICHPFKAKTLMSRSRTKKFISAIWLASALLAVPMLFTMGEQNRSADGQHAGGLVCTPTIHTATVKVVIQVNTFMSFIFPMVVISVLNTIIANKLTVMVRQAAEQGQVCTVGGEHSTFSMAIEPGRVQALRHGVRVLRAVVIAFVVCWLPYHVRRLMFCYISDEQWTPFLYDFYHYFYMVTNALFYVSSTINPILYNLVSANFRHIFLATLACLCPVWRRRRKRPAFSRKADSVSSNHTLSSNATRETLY
Chain of Histamine H2 receptor (P25021 whole entry): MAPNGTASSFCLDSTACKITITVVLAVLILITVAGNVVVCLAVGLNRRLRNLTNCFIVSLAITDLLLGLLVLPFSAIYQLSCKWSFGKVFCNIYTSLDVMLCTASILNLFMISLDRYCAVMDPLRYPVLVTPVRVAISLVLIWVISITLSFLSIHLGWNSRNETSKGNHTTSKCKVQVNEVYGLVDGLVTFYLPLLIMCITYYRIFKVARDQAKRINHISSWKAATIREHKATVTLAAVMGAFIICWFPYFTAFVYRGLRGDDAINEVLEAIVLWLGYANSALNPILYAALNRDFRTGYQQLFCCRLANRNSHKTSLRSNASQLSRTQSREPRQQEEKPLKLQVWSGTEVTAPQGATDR

| SMILES | AC50 [1] | AC50 [2] | AC50 [3] | AC50 [4] | AC50 [5] | AC50 [6] | AC50 [7] | AC50 [8] | AC50 [9] |
| --- | --- | --- | --- | --- | --- | --- | --- | --- | --- |
| CN1CCN(C(=O)OC2c3nccnc3C(=O)N2c2ccc(Cl)cn2)CC1 (centres undefined) [ZOPICLONE] | > 10 µM | > 10 µM | > 30 µM | > 30 µM | > 30 µM | > 30 µM | > 10 µM | > 30 µM |  |
| CCNC(C)Cc1cccc(C(F)(F)F)c1 (centres undefined) [FENFLURAMINE] | > 10 µM |  | > 30 µM | > 30 µM | > 30 µM | > 30 µM |  | > 30 µM |  |
| CCC1(C2=CCCCCC2)C(=O)NC(=O)NC1=O [HEPTABARBITAL] |  |  |  |  |  |  |  |  | > 10 µM |
| C#CC1(OC(N)=O)CCCCC1 [ETHINAMATE] |  |  |  |  |  |  |  |  | > 10 µM |
| CC1=CC(=O)c2ccccc2C1=O [MENADIONE] |  |  |  |  |  |  |  |  | > 30 µM |
| C#CCN[C@@H]1CCc2ccccc21 [RASAGILINE] |  |  |  |  |  |  |  |  | > 30 µM |
| CC(=O)O[C@@]12CO[C@@H]1C[C@H](O)[C@@]1(C)C(=O)[C@H](O)C3=C(C)[C@@H](OC(=O)[C@H](O)[C@@H](NC(=O)OC(C)(C)C)c4ccccc4)C[C@@](O)([C@@H](OC(=O)c4ccccc4)[C@H]21)C3(C)C [DOCETAXEL ANHYDROUS] |  |  |  |  |  |  |  |  | > 30 µM |
| CN[C@@H](C)[C@H](O)c1ccccc1 [EPHEDRINE] | > 10 µM | > 10 µM | > 30 µM | > 30 µM | > 30 µM | > 30 µM | > 10 µM | > 30 µM |  |
| CC(C)c1c(C(=O)Nc2ccccc2)c(-c2ccccc2)c(-c2ccc(F)cc2)n1CC[C@@H](O)C[C@@H](O)CC(=O)O [ATORVASTATIN] | > 10 µM | > 10 µM | > 30 µM | > 30 µM | > 30 µM | > 30 µM | > 10 µM | > 30 µM |  |
| CCN1CCC[C@H]1CNC(=O)c1cc(S(N)(=O)=O)ccc1OC [LEVOSULPIRIDE] |  |  |  |  |  |  | > 10 µM |  | > 30 µM |
| CN[C@@H]1[C@H](O)[C@H](NC)[C@H]2O[C@@]3(O)C(=O)C[C@@H](C)O[C@H]3O[C@@H]2[C@H]1O [SPECTINOMYCIN] |  |  |  |  |  |  |  |  | > 10 µM |
| Cc1c(C(=O)Nc2ccc(N3C[C@@H](C)O[C@@H](C)C3)nc2)cccc1-c1ccc(OC(F)(F)F)cc1 [SONIDEGIB] | > 10 µM | > 10 µM | > 30 µM | > 30 µM | > 30 µM | > 30 µM | > 10 µM | > 30 µM | > 30 µM |
| COc1ccc2cccc(CCNC(C)=O)c2c1 [AGOMELATINE] | > 10 µM | > 10 µM | > 30 µM | > 30 µM | > 30 µM | > 30 µM | > 10 µM | > 30 µM | > 30 µM |
| CCN(CC)CCOC(=O)c1ccc(N)cc1 [PROCAINE] | > 10 µM |  |  |  |  |  | > 10 µM |  |  |
| C1COC(NC(C2CC2)C2CC2)=N1 [RILMENIDINE] |  |  |  |  |  |  | 3.49 µM |  |  |
| CN1CCc2cccc3c2[C@H]1Cc1ccc(O)c(O)c1-3 [APOMORPHINE] | > 10 µM | > 10 µM | > 30 µM | > 30 µM | > 30 µM | > 30 µM | 2.37 µM | > 30 µM |  |
| CN1CCC2=C(C1)C(c1ccccc1)c1ccccc12 (centres undefined) [PHENINDAMINE] |  |  |  |  |  |  |  |  | > 30 µM |
| Cc1cc(-c2ccccc2)nnc1NCCN1CCOCC1 [MINAPRINE] | > 10 µM | > 10 µM | > 30 µM | > 30 µM | > 30 µM | > 30 µM | > 10 µM | > 30 µM |  |
| CN(C)C(=O)OC1N=C(c2ccccc2)c2cc(Cl)ccc2N(C)C1=O (centres undefined) [CAMAZEPAM] | > 10 µM | > 10 µM | > 30 µM | > 30 µM | > 30 µM | > 30 µM | > 10 µM | > 30 µM | > 30 µM |
| Cc1ccc(-c2nc3ccc(C)cn3c2CC(=O)N(C)C)cc1 [ZOLPIDEM] | > 10 µM | > 10 µM | > 30 µM | > 30 µM | > 30 µM | > 30 µM | > 10 µM | > 30 µM |  |
| COC(=O)C1=C(C)NC(C)=C(C(=O)OC(C)C)C1c1cccc2nonc12 (centres undefined) [ISRADIPINE] |  |  |  |  |  |  |  |  | > 30 µM |
| NC(=O)C[S+]([O-])C(c1ccccc1)c1ccccc1 (centres undefined) [MODAFINIL] | > 10 µM | > 10 µM | > 30 µM | > 30 µM | 23.5 µM | > 30 µM | > 10 µM | > 30 µM |  |
| O=C(O)CCCc1ccccc1 [PHENYLBUTANOIC ACID] | > 10 µM |  | > 30 µM | > 30 µM | > 30 µM | > 30 µM | > 10 µM | > 30 µM |  |
| CN1CC[C@]23CCCC[C@H]2[C@H]1Cc1ccc(O)cc13 [LEVORPHANOL] |  |  |  |  |  |  | 19 µM |  | > 10 µM |
| CCCCCN(C)CCC(O)(P(=O)(O)O)P(=O)(O)O [IBANDRONIC ACID] | > 10 µM | > 10 µM | > 30 µM | > 30 µM | > 30 µM | > 30 µM | > 10 µM | > 30 µM | > 30 µM |
| NC(CO)C(=O)NNCc1ccc(O)c(O)c1O (centres undefined) [BENSERAZIDE] | > 10 µM | > 10 µM | > 30 µM | > 30 µM | > 30 µM | > 30 µM | > 10 µM | > 30 µM | > 30 µM |
